Assays:
[1] = test system: mitochondria in U-2 OS cells; assay: Mitochondria labelling with AzG-1 in cells pre-treated with TPP-BCN; type: cell-based, human; details: U-2 OS cells pre-treated with TPP-BCN, 10 μM AzG-1, 2 h
Method: (§1) Excited with the results, we further challenged the model and developed another ‘tame' azide-bearing probe, AzG-1, to label molecules in mitochondria and the fancy tubulin protein in living cells (Figs 4a,b). To target mitochondria, U-2 OS cells were pre-treated with TPP-BCN (an analogue of triphenylphosphonium) before labelled with 10 μM AzG-1. For tubulin labelling, a cyclooctyne-containing UAA, N-ɛ-(cyclooct-2-yn-1-yloxy)carbonyl)L-lysine (CoK) was selected for incorporating into tubulin and reacting with AzG-1 via SPAAC.[29] CHO-K1 cells were co-transfected with plasmids pCoKRS-tRNA and pTub-26TAG to incorporate CoK into α-tubulin at position 26. Site-specific incorporation of CoK using an orthogonal tRNA^Pyl/CoKRS pair was confirmed via western blot analysis (Supplementary Figs. 19 and 20). After incorporation of CoK, cells were then labelled with 10 μM AzG-1 at 37 °C. CHO-K1 cells transfected with plasmid pEGFP-Tubwt expressing EGFP-fused wild-type α-tubulin was used as a control. Confocal fluorescence images were then taken AW of unreacted AzG-1.
(§2) Figure 4 Live cell imaging with AzG-1 (a) Chemical structures of azide-bearing probe AzG-1 and its descriptor values. […] (c) Fluorescence imaging of mitochondria in U-2 OS cells labelled with AzG-1. […] (d) Fluorescence imaging of α-tubulin in live CHO-K1 cells. […]

[2] = test system: CoK-bearing α-tubulin in CHO-K1 cells; assay: Protein labelling on live cells using CoK (α-tubulin), CHO-K1; type: cell-based; details: CoK at position 26 of α-tubulin, 10 μM AzG-1, 2 h, 37 °C
Method: as §1, §2

[3] = test system: CoK-bearing α-tubulin in HeLa cells; assay: Protein labelling on live cells using CoK (α-tubulin), HeLa; type: cell-based; details: CoK-bearing α-tubulin versus wild type
Method: CHO-K1 or HeLa cells were grown in DMEM-low glucose 1 g l^−1 (Gibco) supplemented with 10% FBS (Gibco) in eight-well plate (ibid). At 70∼80% confluency, cells were transfected using 4 μl iN-fect in vitro transfection reagent with 100 ng pCoKRS-tRNA and 900 ng pTub-26TAG or with 900 ng pTubwt. After 6 h of incubation, media was replaced with fresh media (DMEM-low glucose medium with 10% FBS, 1% Pen-Strep, 2 Mm […]) containing 0.25 Mm CoK. After an additional 36 h, media was exchanged with normal growth media without CoK and cells were incubated for 2 h and washed (four times) to remove remaining CoK. Next, growth media containing 1 μM AzG-1 was added to the plates, and cells were incubated for 2 h with four times of washing (30 min each time) using growth media. High-resolution images of live cells were obtained using a Zeiss LSM510 META laser scanning confocal microscope.
Supplementary Figure 21 Fluorescence imaging of α-tubulin in live HeLa.
HeLa cells were co-transfected with plasmids pCoKRS-tRNA and pTub-26TAG or plasmid pTubwt followed by sequential treatment with CoK and AzG-1 as described above. Live cell […]
in HeLa cells. Scale bar, 10 μm.
(1 picture or pasted object on this page, not shown here)

In the case of `CC1=CC(C)=[N+]2C1=C(CCC(=O)NCCN=[N+]=[N-])c1c(C)cc(C)n1[B-]2(F)F` [AzG-1], the Labelling of mitochondria [1] is reported as “specifically labelled mitochondria”, the “Labelling of α-tubulin” value [2] is reported as “conjugated specifically with CoK-bearing α-tubulin” and the “Labelling of α-tubulin” value [3] is reported as “conjugated specifically with CoK-bearing α-tubulin”.

— article PMC4915154, “Development of background-free tame fluorescent probes for intracellular live cell imaging” (Nature Communications, 2016)
